In the supplement of paper PMC11451515:

What was measured:
Conditions in all cases: 48 h
SEM cells [1] = assay: cell viability relative to DMSO control; higher = less cytotoxic
Procedure, shortened: (§1)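 NOMO1 or SEM (500 cells/well) or P12-Ichikawa (1000 cells/well) leukemia cells were adapted for at least four passages in each medium. They were seeded in 1536-well plates (5 μl) and pin-dosed with library compounds in DMSO over an 11-point threefold series, 47 μM to 0.79 nM. CellTiter-Glo One luminescence was read after 48 h at 37°C. Viability is the per-plate percentage relative to DMSO wells, with cell-free wells as background.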

NOMO1 [2] = assay: as above
Procedure, shortened: as §1

P12-Ichikawa [3] = assay: as above
Procedure, shortened: as §1

SEM cells [4] = assay: AUC of viability dose-response curve (% viability x log10 dose units); higher = less sensitive
Procedure, shortened: (§2)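 Leukemia cells adapted to each medium were seeded in 1536-well plates (500 or 1000 cells/well). They were dosed with library compounds in DMSO at 11 threefold doses, 47 μM to 0.79 nM, for 48 h at 37°C. CellTiter-Glo One luminescence was normalised per plate to DMSO and cell-free wells. Area under the curve was integrated by trapezoidal rule over log10 doses on a four-parameter log-logistic fit; curves exceeding full viability were scaled and curves failing quality control removed.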

NOMO1 [5] = assay: as above
Procedure, shortened: as §2

P12-Ichikawa [6] = assay: as above
Procedure, shortened: as §2

CCCn1c(=O)c2[nH]c(C34CC5CC3C[C@@H](C5)C4)nc2n(CCC)c1=O
cell viability [%]
Conditions	NOMO1 [2]	P12-Ichikawa [3]	SEM cells [1]
HPLM + 10% dialyzed FBS, 0.000781 µM	105	111	102
HPLM + 10% dialyzed FBS, 0.00234 µM	62.9	107	84.8
HPLM + 10% dialyzed FBS, 0.00702 µM	92.9	100	103
HPLM + 10% dialyzed FBS, 0.0211 µM	112	97.8	109
HPLM + 10% dialyzed FBS, 0.0632 µM	96.2	112	110
HPLM + 10% dialyzed FBS, 0.19 µM	125	110	122
HPLM + 10% dialyzed FBS, 0.569 µM	104	107	115
HPLM + 10% dialyzed FBS, 1.71 µM	105	99.5	103
HPLM + 10% dialyzed FBS, 5.12 µM	107	93.6	97.9
HPLM + 10% dialyzed FBS, 15.4 µM	99.5	96.6	95.5
HPLM + 10% dialyzed FBS, 46.1 µM	114	96.1	97.8
RPMI 5 mM glucose + 10% FBS, 0.000781 µM	90.5	102	50.7
RPMI 5 mM glucose + 10% FBS, 0.00234 µM	92.6	113	44.7
RPMI 5 mM glucose + 10% FBS, 0.00702 µM	102	112	84.2
RPMI 5 mM glucose + 10% FBS, 0.0211 µM	96.5	110	94.6
RPMI 5 mM glucose + 10% FBS, 0.0632 µM	87.4	136	107
RPMI 5 mM glucose + 10% FBS, 0.19 µM	91.5	106	101
RPMI 5 mM glucose + 10% FBS, 0.569 µM	86.5	64.5	94.1
RPMI 5 mM glucose + 10% FBS, 1.71 µM	97.2	80.3	97.2
RPMI 5 mM glucose + 10% FBS, 5.12 µM	90.3	85.5	94.8
RPMI 5 mM glucose + 10% FBS, 15.4 µM	89.9	86.1	91.1
RPMI 5 mM glucose + 10% FBS, 46.1 µM	95.5	90	84.4
RPMI 5 mM glucose + 10% dialyzed FBS, 0.000781 µM	99	94.2	91.6
RPMI 5 mM glucose + 10% dialyzed FBS, 0.00234 µM	89.2	101	73.2
RPMI 5 mM glucose + 10% dialyzed FBS, 0.00702 µM	92.9	92.4	116
RPMI 5 mM glucose + 10% dialyzed FBS, 0.0211 µM	95.5	96.9	130
RPMI 5 mM glucose + 10% dialyzed FBS, 0.0632 µM	107	99.9	117
RPMI 5 mM glucose + 10% dialyzed FBS, 0.19 µM	98.2	100	110
RPMI 5 mM glucose + 10% dialyzed FBS, 0.569 µM	94.3	94.2	118
RPMI 5 mM glucose + 10% dialyzed FBS, 1.71 µM	95.6	98.7	109
RPMI 5 mM glucose + 10% dialyzed FBS, 5.12 µM	101	98	101
RPMI 5 mM glucose + 10% dialyzed FBS, 15.4 µM	94.8	93.2	91.5
RPMI 5 mM glucose + 10% dialyzed FBS, 46.1 µM	100	88.6	111

AUC of viability dose-response curve
Conditions	NOMO1 [5]	P12-Ichikawa [6]	SEM cells [4]
HPLM + 10% dialyzed FBS	454	462	477
RPMI 5 mM glucose + 10% FBS	442	410	416
RPMI 5 mM glucose + 10% dialyzed FBS	463	460	457

CC(C)(C)C1=NC2=C([NH]1)C3=CC=C(F)C=C3C4=C2\C=C/NC4=O
cell viability [%]
Conditions	P12-Ichikawa [3]	SEM cells [1]
HPLM + 10% dialyzed FBS, 0.000781 µM	–	118
HPLM + 10% dialyzed FBS, 0.00234 µM	–	114
HPLM + 10% dialyzed FBS, 0.00702 µM	–	130
HPLM + 10% dialyzed FBS, 0.0211 µM	–	130
HPLM + 10% dialyzed FBS, 0.0632 µM	–	125
HPLM + 10% dialyzed FBS, 0.19 µM	–	116
HPLM + 10% dialyzed FBS, 0.569 µM	–	111
HPLM + 10% dialyzed FBS, 1.71 µM	–	89
HPLM + 10% dialyzed FBS, 5.12 µM	–	38.8
HPLM + 10% dialyzed FBS, 15.4 µM	–	32.1
HPLM + 10% dialyzed FBS, 46.1 µM	–	50.1
RPMI 5 mM glucose + 10% FBS, 0.000781 µM	118	96.8
RPMI 5 mM glucose + 10% FBS, 0.00234 µM	133	116
RPMI 5 mM glucose + 10% FBS, 0.00702 µM	123	141
RPMI 5 mM glucose + 10% FBS, 0.0211 µM	134	115
RPMI 5 mM glucose + 10% FBS, 0.0632 µM	123	126
RPMI 5 mM glucose + 10% FBS, 0.19 µM	122	138
RPMI 5 mM glucose + 10% FBS, 0.569 µM	113	114
RPMI 5 mM glucose + 10% FBS, 1.71 µM	108	98.6
RPMI 5 mM glucose + 10% FBS, 5.12 µM	69.7	37.2
RPMI 5 mM glucose + 10% FBS, 15.4 µM	17.8	18.1
RPMI 5 mM glucose + 10% FBS, 46.1 µM	72.1	32.3

AUC of viability dose-response curve
Conditions	NOMO1 [5]	P12-Ichikawa [6]	SEM cells [4]
HPLM + 10% dialyzed FBS	415	391	384
RPMI 5 mM glucose + 10% FBS	412	404	378
RPMI 5 mM glucose + 10% dialyzed FBS	408	408	384
